Measurements as given in PubChem BioAssay (NCI).
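How tested: cells in 96-well plates exposed to compound for 48 hours at five concentrations. The concentration for 50% growth inhibition is given as GI50. TGI denotes the concentration required for complete inhibition of growth.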

Columns and labels:
Test in all cases: inhibition of tumour cell growth, NCI panel, 48 h
786-0 renal = system: 786-0 renal
A498 renal = system: A498 renal
A549 NSCLC = system: A549 NSCLC
ACHN renal = system: ACHN renal
BT-549 breast = system: BT-549 breast
CAKI-1 renal = system: CAKI-1 renal
CCRF-CEM leukemia = system: CCRF-CEM leukemia
COLO 205 colon = system: COLO 205 colon
DU-145 prostate = system: DU-145 prostate
EKVX NSCLC = system: EKVX NSCLC
HCC-2998 colon = system: HCC-2998 colon
HCT-116 colon = system: HCT-116 colon
HCT-15 colon = system: HCT-15 colon
HL-60(TB) leukemia = system: HL-60(TB) leukemia
HOP-62 NSCLC = system: HOP-62 NSCLC
HOP-92 NSCLC = system: HOP-92 NSCLC
HS 578T breast = system: HS 578T breast
HT29 colon = system: HT29 colon
IGROV1 ovarian = system: IGROV1 ovarian
K-562 leukemia = system: K-562 leukemia
KM12 colon = system: KM12 colon
LOX IMVI melanoma = system: LOX IMVI melanoma
M14 melanoma = system: M14 melanoma
MALME-3M melanoma = system: MALME-3M melanoma
MCF7 breast = system: MCF7 breast
MDA-MB-231 breast = system: MDA-MB-231 breast
MDA-MB-435 = system: MDA-MB-435
MDA-MB-468 breast = system: MDA-MB-468 breast
MOLT-4 leukemia = system: MOLT-4 leukemia
NCI-H226 lung = system: NCI-H226 lung
NCI-H23 lung = system: NCI-H23 lung
NCI-H460 lung = system: NCI-H460 lung
NCI-H522 lung = system: NCI-H522 lung
NCI/ADR-RES ovarian = system: NCI/ADR-RES ovarian
OVCAR-3 ovarian = system: OVCAR-3 ovarian
OVCAR-4 ovarian = system: OVCAR-4 ovarian
OVCAR-5 ovarian = system: OVCAR-5 ovarian
OVCAR-8 ovarian = system: OVCAR-8 ovarian
PC-3 prostate = system: PC-3 prostate
RPMI-8226 leukemia = system: RPMI-8226 leukemia
RXF 393 renal = system: RXF 393 renal
SF-268 CNS = system: SF-268 CNS
SF-295 CNS = system: SF-295 CNS
SF-539 CNS = system: SF-539 CNS
SK-MEL-2 melanoma = system: SK-MEL-2 melanoma
SK-MEL-28 melanoma = system: SK-MEL-28 melanoma
SK-MEL-5 melanoma = system: SK-MEL-5 melanoma
SK-OV-3 ovarian = system: SK-OV-3 ovarian
SN12C renal = system: SN12C renal
SNB-19 CNS = system: SNB-19 CNS
SNB-75 CNS = system: SNB-75 CNS
SR leukemia = system: SR leukemia
SW-620 colon = system: SW-620 colon
T-47D breast = system: T-47D breast
TK-10 renal = system: TK-10 renal
U251 CNS = system: U251 CNS
UACC-257 melanoma = system: UACC-257 melanoma
UACC-62 melanoma = system: UACC-62 melanoma
UO-31 renal = system: UO-31 renal

Structure (SMILES): CCN1C(=O)N(CC)C2NNC(Sc3c(C(=O)O)c4ccccc4n(CC(C)C)c3=O)=NC21 (stereo not drawn)
- GI50 (786-0 renal): 7.45 µM
- TGI (786-0 renal): > 100 µM
- GI50 (A498 renal): > 100 µM
- TGI (A498 renal): > 100 µM
- GI50 (A549 NSCLC): 4.6 µM
- TGI (A549 NSCLC): > 100 µM
- GI50 (ACHN renal): 4.73 µM
- TGI (ACHN renal): 46.2 µM
- GI50 (BT-549 breast): 35.7 µM
- TGI (BT-549 breast): > 100 µM
- GI50 (CAKI-1 renal): 3.1 µM
- TGI (CAKI-1 renal): 23.2 µM
- GI50 (CCRF-CEM leukemia): 3.54 µM
- TGI (CCRF-CEM leukemia): > 100 µM
- GI50 (COLO 205 colon): 2.53 µM
- TGI (COLO 205 colon): 6.95 µM
- GI50 (DU-145 prostate): 4.49 µM
- TGI (DU-145 prostate): > 100 µM
- GI50 (EKVX NSCLC): 3.11 µM
- TGI (EKVX NSCLC): > 100 µM
- GI50 (HCC-2998 colon): 3.28 µM
- TGI (HCC-2998 colon): 16.9 µM
- GI50 (HCT-116 colon): 3.18 µM
- TGI (HCT-116 colon): > 100 µM
- GI50 (HCT-15 colon): 1.89 µM
- TGI (HCT-15 colon): 18.8 µM
- GI50 (HL-60(TB) leukemia): 2.37 µM
- TGI (HL-60(TB) leukemia): 12.9 µM
- GI50 (HOP-62 NSCLC): 5.42 µM
- TGI (HOP-62 NSCLC): > 100 µM
- GI50 (HOP-92 NSCLC): 14.4 µM
- TGI (HOP-92 NSCLC): 64.1 µM
- GI50 (HS 578T breast): 2.94 µM
- TGI (HS 578T breast): 58.8 µM
- GI50 (HT29 colon): 2.83 µM
- TGI (HT29 colon): 12.5 µM
- GI50 (IGROV1 ovarian): 2.54 µM
- TGI (IGROV1 ovarian): 19.3 µM
- GI50 (K-562 leukemia): 2.77 µM
- TGI (K-562 leukemia): > 100 µM
- GI50 (KM12 colon): 2.93 µM
- TGI (KM12 colon): > 100 µM
- GI50 (LOX IMVI melanoma): 4.13 µM
- TGI (LOX IMVI melanoma): 20.6 µM
- GI50 (M14 melanoma): 4 µM
- TGI (M14 melanoma): > 100 µM
- GI50 (MALME-3M melanoma): 5.23 µM
- TGI (MALME-3M melanoma): 47.7 µM
- GI50 (MCF7 breast): 0.949 µM
- TGI (MCF7 breast): 21.5 µM
- GI50 (MDA-MB-231 breast): 2.51 µM
- TGI (MDA-MB-231 breast): 21.9 µM
- GI50 (MDA-MB-435): 0.976 µM
- TGI (MDA-MB-435): 4.19 µM
- GI50 (MDA-MB-468 breast): 0.442 µM
- TGI (MDA-MB-468 breast): 3.91 µM
- GI50 (MOLT-4 leukemia): 3.66 µM
- TGI (MOLT-4 leukemia): > 100 µM
- GI50 (NCI-H226 lung): 3.92 µM
- TGI (NCI-H226 lung): 21.1 µM
- GI50 (NCI-H23 lung): 3.67 µM
- TGI (NCI-H23 lung): 21.4 µM
- GI50 (NCI-H460 lung): 3.08 µM
- TGI (NCI-H460 lung): 12.2 µM
- GI50 (NCI-H522 lung): 1.88 µM
- TGI (NCI-H522 lung): 5.97 µM
- GI50 (NCI/ADR-RES ovarian): 1.99 µM
- TGI (NCI/ADR-RES ovarian): 4.89 µM
- GI50 (OVCAR-3 ovarian): 3.19 µM
- TGI (OVCAR-3 ovarian): 22.3 µM
- GI50 (OVCAR-4 ovarian): 15 µM
- TGI (OVCAR-4 ovarian): > 100 µM
- GI50 (OVCAR-5 ovarian): 4.19 µM
- TGI (OVCAR-5 ovarian): 67.1 µM
- GI50 (OVCAR-8 ovarian): 3.55 µM
- TGI (OVCAR-8 ovarian): 30.1 µM
- GI50 (PC-3 prostate): 4.14 µM
- TGI (PC-3 prostate): > 100 µM
- GI50 (RPMI-8226 leukemia): 2.75 µM
- TGI (RPMI-8226 leukemia): > 100 µM
- GI50 (RXF 393 renal): 3.17 µM
- TGI (RXF 393 renal): 17.1 µM
- GI50 (SF-268 CNS): 6.46 µM
- TGI (SF-268 CNS): > 100 µM
- GI50 (SF-295 CNS): 3.01 µM
- TGI (SF-295 CNS): 16.3 µM
- GI50 (SF-539 CNS): 2.08 µM
- TGI (SF-539 CNS): 5.47 µM
- GI50 (SK-MEL-2 melanoma): 4.21 µM
- TGI (SK-MEL-2 melanoma): > 100 µM
- GI50 (SK-MEL-28 melanoma): 6.5 µM
- TGI (SK-MEL-28 melanoma): > 100 µM
- GI50 (SK-MEL-5 melanoma): 3.83 µM
- TGI (SK-MEL-5 melanoma): 16.4 µM
- GI50 (SK-OV-3 ovarian): 6.05 µM
- TGI (SK-OV-3 ovarian): > 100 µM
- GI50 (SN12C renal): 3.62 µM
- TGI (SN12C renal): 34.4 µM
- GI50 (SNB-19 CNS): 3.78 µM
- TGI (SNB-19 CNS): 65 µM
- GI50 (SNB-75 CNS): 1.81 µM
- TGI (SNB-75 CNS): 9.27 µM
- GI50 (SR leukemia): 13.2 µM
- TGI (SR leukemia): > 100 µM
- GI50 (SW-620 colon): 4.05 µM
- TGI (SW-620 colon): > 100 µM
- GI50 (T-47D breast): > 100 µM
- TGI (T-47D breast): > 100 µM
- GI50 (TK-10 renal): 18.4 µM
- TGI (TK-10 renal): > 100 µM
- GI50 (U251 CNS): 3.91 µM
- TGI (U251 CNS): > 100 µM
- GI50 (UACC-257 melanoma): 14.7 µM
- TGI (UACC-257 melanoma): > 100 µM
- GI50 (UACC-62 melanoma): 2.68 µM
- TGI (UACC-62 melanoma): 33.5 µM
- GI50 (UO-31 renal): 4.11 µM
- TGI (UO-31 renal): > 100 µM
